The numbers were not newly measured in paper PMC6721965 (Biochimica et biophysica acta. Biomembranes, 2019), which cites them from elsewhere.

The test system of this data set is bacteria. The settings on record: classification of parent peptides used for hybrid design; ref [4]-[8].
Regarding ARDNKKTRIWPRHLQLAVRN [DesHDAP1], the “Primary cellular localization pattern” value is given as “membrane translocation”.

For KGRGKQGGKVRWKAKTRSS [parasin], the “Primary cellular localization pattern” value was “membrane localization/permeabilization”.

Take GIGKWLHSAKKFGKAFVGEIMNS [magainin 2]: the “Primary cellular localization pattern” value was “membrane localization/permeabilization”.

As for “TRSSRAGLQWPVGRVHRLLRK [buforin II (BF2), buforin II]”, the “Primary cellular localization pattern” value is “membrane translocation”.
